How the values were obtained:
clinical = details: for Cmax: Dapagliflozin mean Cmax
Procedure: The Cmax and the corresponding tmax were identified from the observed data. Log-linear regression of the terminal phase yielded the terminal rate constant (λz). The area under the plasma concentration time-curve during the dosing interval (AUCτ) was calculated by the log-linear trapezoidal rule. The area under the curve to infinity (AUC0-inf) was calculated as the sum of AUC(o-t) and Ct/z, where Ct is the observed plasma concentration obtained from the log-linear regression analysis of the last quantifiable time point and z is the terminal phase rate constant. Clearance (CL/F) was determined by dose/AUC0-inf, and the terminal half-life (t1/2) was calculated as 0.693/λz.

[1] = Safety: adverse events, laboratory values, vital signs, ECG; assay type: in vivo, human; details: as judged by the investigator
Procedure: Blood samples were collected to evaluate anti-drug antibody (ADA) response to cotadutide. Serum samples were evaluated for ADA using a validated immunoassay. Adverse events (AEs) and serious adverse events (SAEs) were collected from the time of informed consent throughout the treatment period and including the follow-up period. AEs and SAEs were graded by severity and relationship to investigational product and SAEs were assessed for relationship to protocol procedures.

[2] = 10 mg/day PO, cited from earlier work

In the case of `CCOc1ccc(Cc2cc([C@@H]3O[C@H](CO)[C@@H](O)[C@H](O)[C@H]3O)ccc2Cl)cc1` [dapagliflozin], the “Impact of cotadutide on dapagliflozin oral absorption” value (clinical; dapagliflozin 10 mg/day PO) is reported as “marginal impact”, the half-life (clinical; human, plasma, oral, 10 mg/day) is reported as roughly 8 h and the Cmax (clinical; human, plasma, oral, cotadutide group, Day −1 (cotadutide not yet co-administered)) is reported as 117 ng/mL. The Cmax (clinical; human, plasma, oral, group receiving dapagliflozin and placebo, Day 7) was 92 ng/mL, the Cmax (clinical; human, plasma, oral, group receiving dapagliflozin and placebo, Day 14) was 95.6 ng/mL and the Cmax (clinical; human, plasma, oral, group receiving dapagliflozin and placebo, Day 28) was 112 ng/mL. It also gave a Cmax (clinical; human, plasma, oral, group receiving dapagliflozin and placebo, Day −1) of 110 ng/mL, a Cmax (clinical; human, plasma, oral, in the presence of cotadutide, Day 7) of 84.4 ng/mL and a Cmax (clinical; human, plasma, oral, in the presence of cotadutide, Day 14) of 61.1 ng/mL. For the same compound, the Cmax (clinical; human, plasma, oral, in the presence of cotadutide, Day 28) was 94.2 ng/mL, the “Incidence of dapagliflozin-related TEAEs, cotadutide group” value [1] was 4.0% and the “Incidence of dapagliflozin-related TEAEs, placebo group” value [1] was 8.3%. For the same compound, the “Dapagliflozin Cmax (literature)” value ([2]; Dapagliflozin NDA 202293) was 120 ng/mL, the “Dapagliflozin tmax (literature)” value ([2]; Dapagliflozin NDA 202293) was 1 h and the “Dapagliflozin half-life (literature)” value ([2]; literature data) was 15 h.

From patent US20230012936A1, “COMBINATION THERAPY USING GLUCAGON AND GLP-1 CO-AGONISTS FOR THE TREATMENT OF OBESITY” (MEDIMMUNE, LLC, priority 2019, published 2023)
